Entries after “also recorded” stand apart in the source; their conditions may differ. Read-outs that look alike come from different tables or passages of the source.
Experiments:
[1] = tested on: CCRF-CEM human T-cell acute lymphoblastic leukemia cells; test: In vitro cytotoxicity against CCRF-CEM (XTT / CCK-8 tetrazolium assay, 72 hr); details: for IC50: Homo sapiens
[2] = tested on: CCRF-CEM/VBL100 vinblastine-resistant cells; test: In vitro cytotoxicity against vinblastine-resistant CCRF-CEM subline; type: cell-based, human; details: for IC50: Homo sapiens, CCRF-CEM, 72 h; for fold of cross-resistance (CCRF-CEM/Vinblastine vs parent cell line): Table 3D, given as x or -fold
HCT-116 colon carcinoma = test: Cytotoxicity against solid tumor cells, CCK-8, 72 hrs (Table 4); type: cell-based; details: Homo sapiens
Procedure: (§1) Compounds are also evaluated against A-549 lung carcinoma and SK-OV-3 ovarian adenocarcinoma cell lines using the methodology as for Table 3. The potency order for the compounds may vary in different tumor cell lines. […] Absorbance was measured using a Powerwave XS microplate spectrophotometer.

MX-1 mammary carcinoma = test: as above; type: cell-based; details: Homo sapiens
Procedure: as §1

[3] = Human PBMC lymphocyte viability by actual cell counts (hemacytometer; Tables 8A, 8B, FIG. 9); type: cell-based; details: human
Text: (§2) FIGS. 9A & 9B show effects of panaxytriol and Compound D, respectively, in varying doses at 24 (▪), 72 (●), and 120 (▴) hours on human PBMC lymphocyte survival based on actual cell counts. In both cases, lower amounts of the compounds increase cell proliferation. […] Cell counts in controls without active agent were: at 24 hrs: 75.4%; at 72 hrs: 93.0%; and at 120 hrs: 85.7%. FIG. 9 parallel the experiments in FIG. 8 but used a different method to determine cell survival; the method used in FIG. 9 was actual cell counting using a hemocytometer and microscope.
(§3) The effects of panaxytriol and Compound D on the viability of normal human PBMC lymphocytes shown in Tables 8A and 8B were determined using hemacytometer/microscope determinations. PBMC cells were obtained fresh from the New York Blood Center, New York, N.Y. 10021 (Dr. S. B. Jiang). Cell counts were performed in duplicate for 0, 0.1, 0.3, 1.0, 3.0, and 10.0 μM of each compound at the end of 24 hr, 72 hr, and 120 hr incubations. Incubation was carried out in RPMI 1640 medium (GIBCO/BRL) with 10% heat inactivated fetal bovine serum. […] Acad. Sci. USA 98: 8113-8118, 2001.

[4] = tested on: normal human PBMC lymphocytes; test: as above; type: cell-based; details: for survival / proliferation of normal PBMC lymphocytes: low concentrations, Tables 8
Text: as §2, §3

leukemic CCRF CEM cells = test: Precursor incorporation into DNA, RNA and protein (Table 9); type: cell-based, human
Procedure: The radioactive tracer studies were carried out as described by Chou T C, et al. Cancer Res. 43: 3074-3079, 1983.

[5] = tested on: human mammary carcinoma MX-1 xenografts; details: 5FU 50 mg/kg i.v. QD×5
[6] = tested on: human mammary carcinoma MX-1 xenograft; test: Therapeutic effect and body weight in nude mice bearing MX-1 xenograft, single agents; details: for antitumor effects against MX-1 xenografts: mouse, in vivo; for body weight decrease upon treatment: up to the highest dosage levels (100 mg/kg)
Procedure: FIGS. 1A and 1B show the therapeutic, anti-cancer effects of various dosage regimens of panaxytriol and Compound (A), respectively, given by i.v. injection in nude mice bearing human mammary carcinoma MX-1 xenograft tumors, which is an in vivo model for breast cancer. […] The compounds were administered starting on day 8.
An in vivo assay uses male athymic nude mice bearing the nu/nu gene (6 weeks of age or older, weighing between 20 and 22 g, obtainable from NCl, Frederick, Md.) into which one or more human tumor xenografts are been implanted.
Nude mice having human mammary carcinoma xenograft MX-1 were treated with panaxytriol or Compound (A) at various dosages through the slow i.v. infusion protocol by Chou et al. (Chou, T. C., et al, Proc. Natl. Acad. Sci. U.S.A. 95: 15798 (1998), the contents of which are herein incorporated by reference in their entirety).

[7] = CCRF-CEM, 72 h, read-out: CCRF-CEM (IC50 in μM), Table 3A-2, CCK-8, 72-hr exposure
[8] = CCRF-CEM, 72 h, read-out: IC50 CCRF-CEM, Table 3D, CCK-8, 72-hr incubation
[9] = read-out: IC50 CCRF-CEM/Vinblastine
[10] = Homo sapiens, CCRF-CEM, 100 μM, 60 min, ↓ (inhibition), read-out: [3H] Leu → Protein (% Activation ↑ or Inhibition ↓)
[11] = low concentration (panaxytriol 30 μM, Compound D 6 μM), 15 min incubation

C=C[C@H](O)C#CC#CC[C@H]1OC(C)(C)O[C@@H]1CCCCCCC [Compound (D)]
anti-cancer activity in the in vitro cytotoxicity assay [1]: active against cancer
IC50 [1, 7]: 1.14 µM
IC50 [1, 8]: 0.478 µM
IC50 ([1]; CCRF-CEM, read-out: IC50 (in μM), cytotoxic potency against cancer cell line growth in vitro, Table 3C, cell line not given): 0.48 µM
potency relative to Compound (A) in vitro ([1]; Table 3A): about 1.44 fold
analog is fold more potent (than Compound (A)) ([1]; Table 3A, CCRF-CEM): is 1.68-fold
IC50 ([2]; Table 3A-2, CCK-8, 72-hr exposure, read-out: CCRF-CEM/VBL (IC50 in μM)): 2.55 µM
IC50 [2, 9]: 0.947 µM
cross-resistance to TAXOL or vinblastine ([2]; TAXOL- or vinblastine-resistant (MDR) sublines): do not appear to be cross-resistant to TAXOL or vinblastine
Fold of resistance (IC50 ratio CCRF-CEM/VBL vs CCRF-CEM) ([2]; Table 3A-2): 2.24 fold
analog is fold more potent (than Compound (A)) ([2]; Table 3A, CCRF-CEM/VBL): (analog is 1.19-fold
fold of cross-resistance (CCRF-CEM/Vinblastine vs parent cell line) [2]: 1.98 fold
IC50 (HCT-116 colon carcinoma): 0.617 µM
IC50 (MX-1 mammary carcinoma): 5.32 µM
viability at 24 h, 0.1 µM [3]: 101%
viability at 24 h, 0.3 µM [3]: 118%
viability at 24 h, 1 µM [3]: 78.4%
viability at 24 h, 3 µM [3]: 90.5%
viability at 24 h, 10 µM [3]: 7.5%
viability at 72 h, 0.1 µM [3]: 116%
viability at 72 h, 0.3 µM [3]: 108%
viability at 72 h, 1 µM [3]: 89.7%
viability at 72 h, 3 µM [3]: 66.8%
viability at 72 h, 10 µM [3]: 33.2%
viability at 120 h, 0.1 µM [3]: 78.2%
viability at 120 h, 0.3 µM [3]: 73.6%
viability at 120 h, 1 µM [3]: 102%
viability at 120 h, 3 µM [3]: 68%
viability at 120 h, 10 µM [3]: 27.4%
high concentrations increasing cell death ([4]; human): 3 to 10 µM
survival / proliferation of normal PBMC lymphocytes [4]: increased the survival
effect on protein synthesis (leukemic CCRF CEM cells): inhibitory effects
[3H]-AdR → RNA (% Activation ↑ or Inhibition ↓) (leukemic CCRF CEM cells; 6 μM, 15 min, ↑ (activation)): 35.3 ↑ %
[3H]-dThd → DNA (% Activation ↑ or Inhibition ↓) (leukemic CCRF CEM cells; 6 μM, 15 min, ↑ (activation)): 13.2 ↑ %
[3H]-AdR → RNA (% Activation ↑ or Inhibition ↓) (leukemic CCRF CEM cells; 100 μM, 60 min, ↓ (inhibition)): 72.5 ↓ %
[3H]-dThd → DNA (% Activation ↑ or Inhibition ↓) (leukemic CCRF CEM cells; 100 μM, 60 min, ↓ (inhibition)): 69.5 ↓ %
effect on DNA and RNA synthesis (leukemic CCRF CEM cells; 100 μM, 60 min incubation): inhibitory
inhibition at 6 µM (leukemic CCRF CEM cells; Homo sapiens, CCRF-CEM, 6 μM, 15 min, ↓ (inhibition), read-out: [3H] Leu → Protein (% Activation ↑ or Inhibition ↓)): 45.2%
inhibition at 100 µM (leukemic CCRF CEM cells; [10]): 69.5%
effect on DNA and RNA synthesis (leukemic CCRF CEM cells; [11]): activate
effect of co-treatment on acute body-weight decrease due to 5FU [5]: did not significantly reduce
effect of co-treatment on therapeutic effect of 5FU [5]: not significantly increased
MX-1 xenograft suppressed by the compound by itself ([6]; 10 mg/kg i.v. Q4D×4): 10%
MX-1 xenograft inhibited ([6]; 15 mg/kg Q2D×1, 40 mg/kg Q2D×4): 38.3%
effectiveness compared with panaxytriol ([6]; MX-1 xenografts): more effective at lower doses than panaxytriol
antitumor effects against MX-1 xenografts [6]: antitumor effects

C=C[C@@H](O)C#CC#CC[C@@H](O)[C@H](O)CCCCCCC [panaxytriol]
IC50 [1, 7]: 3.68 µM
IC50 ([1]; CCRF-CEM, 72 h, read-out: IC50 CCRF-CEM, Table 3, XTT, 72-hour): 12.1 ± 1.57 µM
IC50 [1, 8]: 5.04 ± 0.86 µM
IC50 ([2]; read-out: CCRF-CEM/VBL (IC50 in μM)): 4.43 µM
IC50 ([2]; read-out: IC50 CCRF ± CEM/VBL): 14.6 ± 6.92 µM
IC50 [2, 9]: 6.39 µM
fold resistance in brackets (IC50 CCRF-CEM/VBL vs CCRF-CEM) ([2]; Table 3): 1.20 x
Fold of resistance (IC50 ratio CCRF-CEM/VBL vs CCRF-CEM) ([2]; Table 3A-2): 1.20 fold
fold of cross-resistance (CCRF-CEM/Vinblastine vs parent cell line) [2]: 1.27 fold
viability at 24 h, 0.1 µM ([3]; 0.1 μM, 24-hrs, read-out: viable cells relative to the starting point (control)): 121%
viability at 72 h, 0.1 µM ([3]; 0.1 μM, 72-hrs, read-out: viable cells relative to the starting point (control)): 113%
viability at 120 h, 0.1 µM ([3]; 0.1 μM, 120-hrs, read-out: viable cells relative to the starting point (control)): 110%
viability at 24 h, 0.3 µM ([3]; 0.3 μM, 24-hrs, read-out: viable cells relative to the starting point (control)): 140%
viability at 72 h, 0.3 µM ([3]; 0.3 μM, 72-hrs, read-out: viable cells relative to the starting point (control)): 95.8%
viability at 120 h, 0.3 µM ([3]; 0.3 μM, 120-hrs, read-out: viable cells relative to the starting point (control)): 105%
viability at 24 h, 1 µM ([3]; 1.0 μM, 24-hrs, read-out: viable cells relative to the starting point (control)): 123%
viability at 72 h, 1 µM ([3]; 1.0 μM, 72-hrs, read-out: viable cells relative to the starting point (control)): 102%
viability at 120 h, 1 µM ([3]; 1.0 μM, 120-hrs, read-out: viable cells relative to the starting point (control)): 101%
viability at 24 h, 3 µM ([3]; 3.0 μM, 24-hrs, read-out: viable cells relative to the starting point (control)): 104%
viability at 72 h, 3 µM ([3]; 3.0 μM, 72-hrs, read-out: viable cells relative to the starting point (control)): 82.2%
viability at 120 h, 3 µM ([3]; 3.0 μM, 120-hrs, read-out: viable cells relative to the starting point (control)): 74.1%
viability at 24 h, 10 µM ([3]; 10.0 μM, 24-hrs, read-out: viable cells relative to the starting point (control)): 27.7%
viability at 72 h, 10 µM ([3]; 10.0 μM, 72-hrs, read-out: viable cells relative to the starting point (control)): 28.5%
viability at 120 h, 10 µM ([3]; 10.0 μM, 120-hrs, read-out: viable cells relative to the starting point (control)): 35.5%
time of maximal activation (cell counts) ([4]; FIGS. 9A, 9B): 24 h
survival / proliferation of normal PBMC lymphocytes [4]: increased the survival; also recorded: increases the proliferation and prolongs the life-span of normal lymphocytes
effect on protein synthesis (leukemic CCRF CEM cells): inhibitory effects
[3H]-AdR → RNA (% Activation ↑ or Inhibition ↓) (leukemic CCRF CEM cells; 30 μM, 15 min, ↑ (activation)): 38.0 ↑ %
[3H]-dThd → DNA (% Activation ↑ or Inhibition ↓) (leukemic CCRF CEM cells; 30 μM, 15 min, ↑ (activation)): 21.3 ↑ %
[3H]-AdR → RNA (% Activation ↑ or Inhibition ↓) (leukemic CCRF CEM cells; 100 μM, 60 min, ↓ (inhibition)): 74.4 ↓ %
[3H]-dThd → DNA (% Activation ↑ or Inhibition ↓) (leukemic CCRF CEM cells; 100 μM, 60 min, ↓ (inhibition)): 67.8 ↓ %
effect on DNA and RNA synthesis (leukemic CCRF CEM cells; 100 μM, 60 min incubation): inhibitory
inhibition at 30 µM (leukemic CCRF CEM cells; Homo sapiens, CCRF-CEM, 30 μM, 15 min, ↓ (inhibition), read-out: [3H] Leu → Protein (% Activation ↑ or Inhibition ↓)): 77.8%
inhibition at 100 µM (leukemic CCRF CEM cells; [10]): 67.8%
effect on DNA and RNA synthesis (leukemic CCRF CEM cells; [11]): activate
suppression of tumor growth ([6]; 30 mg/kg): some suppression of tumor growth
tumor suppression compared to the control tumor size ([6]; Day 24, i.v. injection Q2D, escalating doses from day 8, FIGS. 1A, 1B): 52.3%
evidence of toxicity (body weight) ([6]; FIGS. 1C, 1D, i.v. injections up to 100 mg/kg): no evidence
MX-1 xenograft tumor growth suppressed by ([6]; Q2D i.v. injection 50-100 mg/kg of multiple doses (FIG. 1A)): 53%
antitumor effects against MX-1 xenografts [6]: antitumor effects
body weight decrease upon treatment [6]: no body weight decrease
body weight decrease upon treatment ([6]; listed as Panaxytriol): without a drop in body-weight

Reference: patent publication US8859615B2, “Compounds, compositions and methods for reducing toxicity and treating or preventing diseases” (priority 2008, dated 2014)
